Experimental data as given in ChEMBL document CHEMBL1201862, “PubChem BioAssay data set” (2004).
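Five concentrations, 48 hours, 96-well plates. GI50: concentration for 50% inhibition of growth.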 Calls of active or inactive are those of the source. Cut-off read from the data, not from the text of the source: active = GI50 up to about 1.1 µM and inactive = higher.

Tests used:
Assay in all cases: inhibition of tumour cell growth, NCI panel, 48 h
[1] = tested on: HCT-116
[2] = tested on: SN12C
[3] = tested on: SF-539
[4] = tested on: HL-60
[5] = tested on: M14
[6] = tested on: RXF 393
[7] = tested on: A549
[8] = tested on: SK-MEL-28
[9] = tested on: SK-MEL-2
[10] = tested on: UACC-257
[11] = tested on: NCI-H522
[12] = tested on: SNB-19
[13] = tested on: SF-295
[14] = tested on: CAKI-1
[15] = tested on: NCI-H460
[16] = tested on: MOLT-4

SMILES	GI50 [1]	GI50 [2]	GI50 [3]	GI50 [4]	GI50 [5]	GI50 [6]	GI50 [7]	GI50 [8]	GI50 [9]	GI50 [10]	GI50 [11]	GI50 [12]	GI50 [13]	GI50 [14]	GI50 [15]	GI50 [16]
CCOC(=O)/C(C#N)=C1\N[C@H](C(=O)OCC)CO1	> 100 µM (inactive)	> 100 µM (inactive)	> 100 µM (inactive)	> 100 µM (inactive)	> 100 µM (inactive)	> 100 µM (inactive)	> 100 µM (inactive)	> 100 µM (inactive)	30.4 µM (inactive)	> 100 µM (inactive)	> 100 µM (inactive)	> 100 µM (inactive)	> 100 µM (inactive)	> 100 µM (inactive)	> 100 µM (inactive)	> 100 µM (inactive)
Cc1nn2c(nc1=O)sc1ccc3ccccc3c12	> 100 µM (inactive)	> 100 µM (inactive)	> 100 µM (inactive)	> 100 µM (inactive)	> 100 µM (inactive)	> 100 µM (inactive)	> 100 µM (inactive)	> 100 µM (inactive)	> 100 µM (inactive)	> 100 µM (inactive)		> 100 µM (inactive)	> 100 µM (inactive)	> 100 µM (inactive)	> 100 µM (inactive)	> 100 µM (inactive)
O=CCCCC(Sc1ccccc1)Sc1ccccc1	12.4 µM (inactive)	22 µM (inactive)		6.1 µM (inactive)	22.9 µM (inactive)	> 10 µM (inactive)	29.6 µM (inactive)	15.8 µM (inactive)	20.2 µM (inactive)	21.1 µM (inactive)	> 100 µM (inactive)	45.4 µM (inactive)	18.1 µM (inactive)	56.8 µM (inactive)	> 10 µM (inactive)	12.5 µM (inactive)
CCOC(=O)/N=c1\ss/c(=N\C(=S)N(C)C)n1-c1ccccc1	7.62 µM (inactive)	> 10 µM (inactive)	40.7 µM (inactive)	> 10 µM (inactive)	> 10 µM (inactive)	1.07 µM (active)	1.11 µM (active)	1.82 µM (inactive)	67.8 µM (inactive)	> 10 µM (inactive)	0.235 µM (active)	47.2 µM (inactive)	29.7 µM (inactive)	48 µM (inactive)	2.7 µM (inactive)	4.27 µM (inactive)
CC1=C(/C=C/C(C)=C/C=C/C(C)=C/C=C/C=C(C)/C=C/C=C(C)/C=C/C2=C(C)C(=O)C(O)CC2(C)C)C(C)(C)CC(O)C1=O (configuration not stated)	> 100 µM (inactive)	> 100 µM (inactive)	> 100 µM (inactive)	> 100 µM (inactive)	> 100 µM (inactive)	> 100 µM (inactive)	> 100 µM (inactive)	> 100 µM (inactive)	> 100 µM (inactive)	> 100 µM (inactive)	> 100 µM (inactive)	> 100 µM (inactive)	> 100 µM (inactive)	> 100 µM (inactive)	> 100 µM (inactive)	> 100 µM (inactive)
CN(C)C(=N/O)/C(=N\O)N(C)C	> 100 µM (inactive)	> 100 µM (inactive)	> 100 µM (inactive)	> 100 µM (inactive)	> 100 µM (inactive)	> 100 µM (inactive)	> 100 µM (inactive)	> 100 µM (inactive)	> 100 µM (inactive)	> 100 µM (inactive)	> 100 µM (inactive)	> 100 µM (inactive)	> 100 µM (inactive)	> 100 µM (inactive)	> 100 µM (inactive)	> 100 µM (inactive)
c1cc(-c2cn[nH]c2)cc(-c2cn[nH]c2)c1	20.2 µM (inactive)	39.4 µM (inactive)	17.9 µM (inactive)	30.9 µM (inactive)	44.6 µM (inactive)	6.44 µM (inactive)	20.1 µM (inactive)	35.9 µM (inactive)	56 µM (inactive)	90.8 µM (inactive)	27.2 µM (inactive)	61.1 µM (inactive)	39.8 µM (inactive)	8.04 µM (inactive)	41.4 µM (inactive)	33.1 µM (inactive)
CCN(CC)c1ccc(C(=C2C=CC(=[N+](CC)CC)C=C2)c2ccccc2)cc1	0.0324 µM (active)	0.0254 µM (active)	0.0462 µM (active)	< 0.01 µM (active)	0.0163 µM (active)	0.022 µM (active)	0.0348 µM (active)	0.0537 µM (active)	0.0279 µM (active)	0.0472 µM (active)	0.0177 µM (active)	0.043 µM (active)	0.0248 µM (active)	0.164 µM (active)	0.0231 µM (active)	0.0151 µM (active)
O=P(c1ccccc1)(c1ccccc1)C1CC=C2CCCCCC2C1 (configuration not stated)	19.6 µM (inactive)	30.6 µM (inactive)	> 10 µM (inactive)	27.2 µM (inactive)	21.8 µM (inactive)	28.8 µM (inactive)	> 10 µM (inactive)	> 10 µM (inactive)	29.9 µM (inactive)	25 µM (inactive)	17.2 µM (inactive)	27.6 µM (inactive)	41.3 µM (inactive)	23.7 µM (inactive)	32.7 µM (inactive)	18.8 µM (inactive)
O=C1/C(=C/c2ccccc2Cl)COc2ccccc21	4.75 µM (inactive)		17.3 µM (inactive)	17.6 µM (inactive)		15.5 µM (inactive)	22.6 µM (inactive)	16.3 µM (inactive)	15.5 µM (inactive)	15.1 µM (inactive)	16.6 µM (inactive)		19.1 µM (inactive)		20.5 µM (inactive)	5.79 µM (inactive)
COC(=O)C(=O)C(C#N)c1ccc(CC#N)cc1 (configuration not stated)	> 100 µM (inactive)	> 100 µM (inactive)	> 100 µM (inactive)	> 100 µM (inactive)	> 100 µM (inactive)		> 100 µM (inactive)	> 100 µM (inactive)	> 100 µM (inactive)	> 100 µM (inactive)	> 100 µM (inactive)	> 100 µM (inactive)	> 100 µM (inactive)	> 100 µM (inactive)		> 100 µM (inactive)
Cc1cc(N(CCC#N)S(C)(=O)=O)ccc1C=O	> 100 µM (inactive)	> 100 µM (inactive)	> 100 µM (inactive)	> 100 µM (inactive)	> 100 µM (inactive)	> 100 µM (inactive)	> 100 µM (inactive)	> 100 µM (inactive)	> 100 µM (inactive)	> 100 µM (inactive)	> 100 µM (inactive)	> 100 µM (inactive)	> 100 µM (inactive)	> 100 µM (inactive)	> 100 µM (inactive)	> 100 µM (inactive)
O=C[C@]12CC=C3OC4OC5(CCCCC5)OC4[C@H]3[C@H]1C(=O)C=CC2=O (some centres not stated)	19.9 µM (inactive)	52.8 µM (inactive)	3.55 µM (inactive)	0.406 µM (active)	19 µM (inactive)	12.6 µM (inactive)	11.6 µM (inactive)	26.7 µM (inactive)	33.7 µM (inactive)	21.1 µM (inactive)	5.9 µM (inactive)	28.4 µM (inactive)	34.6 µM (inactive)	23 µM (inactive)	23.9 µM (inactive)	2.85 µM (inactive)
O=c1c2cc(Br)ccc2[nH]c(=S)n1-c1ccc(Br)cc1	89.7 µM (inactive)	75 µM (inactive)	97.1 µM (inactive)	> 100 µM (inactive)		> 100 µM (inactive)	> 100 µM (inactive)	> 100 µM (inactive)	87.7 µM (inactive)	> 100 µM (inactive)	> 100 µM (inactive)	47.9 µM (inactive)	45.5 µM (inactive)		82.8 µM (inactive)	> 100 µM (inactive)
CCCC/C=C/C=C/C=C/CCCCCCCC(=O)OCC(COC(=O)CCCCCCC/C=C/C1C=CC(CCCC)C(C(=O)O)C1C(=O)O)OC(=O)CCCCCCC/C=C/C=C/C=C/CCCC.OCCNCO (configuration not stated)	17 µM (inactive)	20 µM (inactive)	19 µM (inactive)	21.9 µM (inactive)	15.4 µM (inactive)		18.8 µM (inactive)	18.3 µM (inactive)	15.8 µM (inactive)	19.1 µM (inactive)		20.2 µM (inactive)	17.8 µM (inactive)	28.8 µM (inactive)	33.8 µM (inactive)	23.7 µM (inactive)
O=[N+]([O-])c1cccc(C2=NN(c3ccccc3)C[N+](c3ccc(Br)cc3)=N2)c1	97.1 µM (inactive)	> 100 µM (inactive)	> 100 µM (inactive)		59 µM (inactive)	> 100 µM (inactive)	> 100 µM (inactive)	> 100 µM (inactive)	87.3 µM (inactive)	> 100 µM (inactive)	77.1 µM (inactive)	> 100 µM (inactive)	64.9 µM (inactive)	> 100 µM (inactive)	> 100 µM (inactive)	35.7 µM (inactive)
c1ccc2c3nc(C4CCCC4)nc-3c(NC3CCCC3)[nH]c2c1	5.66 µM (inactive)	32.7 µM (inactive)	15.3 µM (inactive)	2.3 µM (inactive)	2.98 µM (inactive)	14.7 µM (inactive)	21 µM (inactive)	13 µM (inactive)	14 µM (inactive)	5.94 µM (inactive)	18.4 µM (inactive)	45.1 µM (inactive)	16.8 µM (inactive)		8.04 µM (inactive)	6 µM (inactive)
CCOC(=O)/C(=C/c1ccc(Cl)cc1)N(CC)CC	> 100 µM (inactive)	> 100 µM (inactive)	> 100 µM (inactive)	> 100 µM (inactive)	> 100 µM (inactive)		90.4 µM (inactive)	> 100 µM (inactive)	> 100 µM (inactive)	> 100 µM (inactive)	89.1 µM (inactive)		> 100 µM (inactive)	> 100 µM (inactive)	> 100 µM (inactive)	> 100 µM (inactive)
